Laboratory results published in patent US10570108B2, “Substituted benzofuran compounds for the treatment of hepatitis C” (BRISTOL-MYERS SQUIBB COMPANY, priority 2015, dated 2020).

System: HCV
Assay: not given
Details: extended dosing of the combination regimens; cited from earlier work

In the case of `CNC(=O)c1c(-c2ccc(F)cc2)oc2cc(N(CCO)S(C)(=O)=O)c(C3CC3)cc12` [HCV-796], the hepatic toxicity is given as “hepatic toxicity observed”.

Same assay, conditions: single agent or combined with interferon and ribavirin; cited from earlier work

For `CNC(=O)c1c(-c2ccc(F)cc2)oc2cc(N(CCO)S(C)(=O)=O)c(C3CC3)cc12` [HCV-796], the “HCV RNA levels in patients” value is given as “reduce HCV RNA levels”.

System: HCV replicon
Assay: HCV replicon luciferase assay
Format: cell-based
Details: Hepatitis C virus, Huh-7, 72 h
Protocol: Cell lines. The cell lines used to evaluate compounds consist of a human hepatocyte derived cell line (Huh-7) that constitutively expresses a genotype 1b (Con-1) HCV replicon or a genotype 1b (Con-1) HCV replicon with an asparagine replacing the cysteine at amino acid 316, or a genotype 2a (JFH-1) replicon, containing a Renilla luciferase reporter gene. These cells were maintained in Dulbecco's modified Eagle medium (DMEM) containing 10% FBS, 100 U/mL penicillin/streptomycin and 1.0 mg/mL G418.
HCV replicon luciferase assay. To evaluate compound efficacy, titrated compounds were transferred to sterile 384-well tissue culture treated plates, and the plates were seeded with HCV replicon cells (50 μL at a density of 2.4×10^3 cells/well) in DMEM containing 4% FBS (final DMSO concentration at 0.5%). After 3 days incubation at 37° C., cells were analyzed for Renilla Luciferase activity using the EnduRen substrate (Promega cat #E6485) according to the manufacturer's directions. Briefly, the EnduRen substrate was diluted in DMEM and then added to the plates to a final concentration of 7.5 μM. The plates were incubated for at least 1 h at 37° C. then read on a Viewlux Imager (PerkinElmer) using a luminescence program. The 50% effective concentration (EC50) was calculated using the four-parameter logistic formula noted above.

Point of comparison: `CCNc1cc2oc(-c3ccc(F)cc3)c(C(=O)NC)c2cc1-c1cccc(C(=O)NC2CCNC2=O)c1` (stereo not drawn) [Compound 4001], EC50 58.8 nM. Against it:
- CCNc1cc2oc(-c3ccc(F)cc3)c(C(=O)NC)c2cc1-c1cccc(C(=O)NCC(C)(C)C#N)c1 [Compound 4002] — not separable, < 100 nM
- C#CC1(NC(=O)c2cccc(-c3cc4c(C(=O)NC)c(-c5ccc(F)cc5)oc4cc3NCC)c2)CCCCC1 [Compound 4003] — not separable, < 100 nM
- CCNc1cc2oc(-c3ccc(F)cc3)c(C(=O)NC)c2cc1-c1cccc(C(=O)NC2(C#N)CCN(Cc3ccccc3)CC2)c1 [Compound 4004] — not separable, < 100 nM
- C#CC1(NC(=O)c2cccc(-c3cc4c(C(=O)NC)c(-c5ccc(F)cc5)oc4cc3N(CC)S(C)(=O)=O)c2)CCCCC1 [Compound 5001] — not separable, < 100 nM
- CCN(c1cc2oc(-c3ccc(F)cc3)c(C(=O)NC)c2cc1-c1cccc(C(=O)NC2(C(F)(F)F)CCCC2)c1)S(C)(=O)=O [Compound 5002] — 8.4-fold lower, 7 nM
- CCN(c1cc2oc(-c3ccc(F)cc3)c(C(=O)NC)c2cc1-c1cccc(C(=O)N[C@@H]2CCNC2=O)c1)S(C)(=O)=O [Compound 5003] — higher, 100 to 1000 nM
- CCN(c1cc2oc(-c3ccc(F)cc3)c(C(=O)NC)c2cc1-c1cccc(C(=O)N[C@H]2CCNC2=O)c1)S(C)(=O)=O [Compound 5004] — higher, 100 to 1000 nM
- CCN(c1cc2oc(-c3ccc(F)cc3)c(C(=O)NC)c2cc1-c1cccc(C(=O)NC2(C#N)CCN(C(=O)OC(C)(C)C)CC2)c1)S(C)(=O)=O [Compound 5005] — not separable, < 100 nM
- CCN(c1cc2oc(-c3ccc(F)cc3)c(C(=O)NC)c2cc1-c1cccc(C(=O)NC2(C#N)CCc3cc(OC)ccc3C2)c1)S(C)(=O)=O (stereo not drawn) [Compound 5006] — not separable, < 100 nM
- CCN(c1cc2oc(-c3ccc(F)cc3)c(C(=O)NC)c2cc1-c1cccc(C(=O)NC2(C#N)CCOCC2)c1)S(C)(=O)=O [Compound 5007] — 14-fold lower, 4.2 nM
- CNC(=O)c1c(-c2ccc(F)cc2)oc2cc(N(CC3CC3)S(C)(=O)=O)c(-c3cccc(C(=O)NC(C)(C)C=O)c3)cc12 [Compound 6001] — not separable, < 100 nM
- CNC(=O)c1c(-c2ccc(F)cc2)oc2cc(N(CCF)S(C)(=O)=O)c(-c3cccc(C(=O)NCC4CCCC4NC(=O)OC(C)(C)C)c3)cc12 (stereo not drawn) [Compound 7001] — not separable, < 100 nM
